# Experiment: recombinant UMI read abundance after kanamycin selection (control-corrected) (log10(CPM+1)); higher = more efficient recombination; extreme values may be limits of the assay; sequences stand for … in AGTGCAGAGAAAATCGGCCAGTTTTCTCTGCCTGCAGTCCGCATGCCGTGGGACCCCTTGGGTTCTAACCTGTTGCCTAGATTTATGCAGCGGACTGCCTTTCTCCCAAAGTGATAAACCGG…AGGTTGGTTTCACT; site = the 11-nt donor
# Procedure, shortened: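 Values, expressed as log10(CPM+1), derive from recombinant UMI counts converted to CPM, averaged across replicates and scaled by control-derived factors. Plating was with IPTG (0.07 mM) plus kanamycin or unselected, two replicates each. The screen pooled donor and donor-binding-loop pairs for the IS621 bridge recombinase in Escherichia coli.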
# 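Note: IS621 bridge recombinase in Escherichia coli cells against a fixed T5 target plasmid.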
row,Sequence,recombinant UMI read abundance (log10)
1,CGGTAGACATGGACCGGTTTTCCCGGTAATCCGTATTTGAG (site CGCTAGACTCT),0.37
2,CGGTAGACATGGACCGGTTTTCCCGGTAATCCGTATTTGAG (site CGGTAGACTCT),1.9
3,CGGTAGACATGGACCGGTTTTCCCGGTAATCCGTATTTGAG (site CGTTAGACTCT),0.371
4,CGGTAGTCATGGACCGGTTTTCCCGGTAATCCGTATTTGTT (site CGGTAGTCTAA),3.15
5,CGGTATCCATGGACCGGTTTTCCCGGTAATCCGTATTTGCG (site CGGTATCCTCG),0.378
6,CGGTATCCATGGACCGGTTTTCCCGGTAATCCGTATTTGTC (site CGGAATCCTAA),0.00431
7,CGGTATCCATGGACCGGTTTTCCCGGTAATCCGTATTTGTC (site CGGTATCCTGA),0
8,CGGTCAGCATGGACCGGTTTTCCCGGTAATCCGTATTTGCT (site CGATCATCTAG),0
9,CGGTCAGCATGGACCGGTTTTCCCGGTAATCCGTATTTGCT (site CGGTCAGCTAG),1.12
10,CGGTCGACATGGACCGGTTTTCCCGGTAATCCGTATTTGGG (site CAGTCGACTCC),0.0262
11,CGGTCGACATGGACCGGTTTTCCCGGTAATCCGTATTTGGG (site CCGTCGACTCC),0.0265
12,CGGTCGACATGGACCGGTTTTCCCGGTAATCCGTATTTGGG (site CGGTCGACTCC),0.018
13,CGGTCGACATGGACCGGTTTTCCCGGTAATCCGTATTTGGG (site CTGTCGACTCC),0.0407
14,CGGTCGACATGGACCGGTTTTCCCGGTAATCCGTATTTGTT (site CGATCGACTAA),0.0167
15,CGGTCGACATGGACCGGTTTTCCCGGTAATCCGTATTTGTT (site CGCTCGACTAA),0.00476
16,CGGTCGACATGGACCGGTTTTCCCGGTAATCCGTATTTGTT (site CGGTCGACTAA),0.226
17,CGGTCGACATGGACCGGTTTTCCCGGTAATCCGTATTTGTT (site CGTTCGACTAA),0.00264
18,CGGTGGACATGGACCGGTTTTCCCGGTAATCCGTATTTGTC (site CGGTGGACTGA),2.27
19,CGGTTCCCATGGACCGGTTTTCCCGGTAATCCGTATTTGTG (site AGGTTCCCTCA),0.0113
20,CGGTTCCCATGGACCGGTTTTCCCGGTAATCCGTATTTGTG (site CGGTTCCCTCA),0.0387
21,CGGTTCCCATGGACCGGTTTTCCCGGTAATCCGTATTTGTG (site GGGTTCCCTCA),0.0355
22,CGGTTCCCATGGACCGGTTTTCCCGGTAATCCGTATTTGTG (site TGGTTCCCTCA),0.0119
23,CGGTTGGCATGGACCGGTTTTCCCGGTAATCCGTATTTGCT (site CGATTGGCTAG),0.3

row,Sequence,recombinant UMI read abundance (log10)
1,CGGTTGGCATGGACCGGTTTTCCCGGTAATCCGTATTTGCT (site CGCTTGGCTAG),0.00834
2,CGGTTGGCATGGACCGGTTTTCCCGGTAATCCGTATTTGCT (site CGGTTGGCTAG),1.08
3,CGGTTGGCATGGACCGGTTTTCCCGGTAATCCGTATTTGCT (site CGTTTGGCTAG),0
4,CGTAAGCCATGGACCGGTTTTCCCGGTAATCCGTATTTGTT (site CGGAATCCTAA),0
5,CGTAAGCCATGGACCGGTTTTCCCGGTAATCCGTATTTGTT (site CGTAAGCCTAA),0.666
6,CGTAATCCATGGACCGGTTTTCCCGGTAATCCGTATTTGTT (site CGAAATCCTAA),0.00285
7,CGTAATCCATGGACCGGTTTTCCCGGTAATCCGTATTTGTT (site CGCAATCCTAA),0
8,CGTAATCCATGGACCGGTTTTCCCGGTAATCCGTATTTGTT (site CGGAATCCTAA),0.00347
9,CGTAATCCATGGACCGGTTTTCCCGGTAATCCGTATTTGTT (site CGTAATCCTAA),0
10,CGTACATCATGGACCGGTTTTCCCGGTAATCCGTATTTGCT (site CGAACATCTAG),0.623
11,CGTACATCATGGACCGGTTTTCCCGGTAATCCGTATTTGCT (site CGATCATCTAG),0
12,CGTACATCATGGACCGGTTTTCCCGGTAATCCGTATTTGCT (site CGCACATCTAG),0
13,CGTACATCATGGACCGGTTTTCCCGGTAATCCGTATTTGCT (site CGGACATCTAG),0
14,CGTACATCATGGACCGGTTTTCCCGGTAATCCGTATTTGCT (site CGTACATCTAG),1.39
15,CGTACCACATGGACCGGTTTTCCCGGTAATCCGTATTTGAG (site CGTACCACTCT),1.06
16,CGTAGAACATGGACCGGTTTTCCCGGTAATCCGTATTTGCC (site CGTAGAACTGG),2.75
17,CGTATGGCATGGACCGGTTTTCCCGGTAATCCGTATTTGCT (site CGTATGGCTAG),0.895
18,CGTATGGCATGGACCGGTTTTCCCGGTAATCCGTATTTGCT (site CGTCTGGCTAG),0
19,CGTATGGCATGGACCGGTTTTCCCGGTAATCCGTATTTGCT (site CGTGTGGCTAG),0.0109
20,CGTATGGCATGGACCGGTTTTCCCGGTAATCCGTATTTGCT (site CGTTTGGCTAG),0
21,CGTCTATCATGGACCGGTTTTCCCGGTAATCCGTATTTGCC (site CGTCTATCTGG),2.64
22,CGTCTGACATGGACCGGTTTTCCCGGTAATCCGTATTTGAC (site CGTCTGACTGT),0.908
23,CGTCTGGCATGGACCGGTTTTCCCGGTAATCCGTATTTGCT (site CGTATGGCTAG),0

row,Sequence,recombinant UMI read abundance (log10)
1,CGTCTGGCATGGACCGGTTTTCCCGGTAATCCGTATTTGCT (site CGTCTGGCTAG),0.46
2,CGTCTGGCATGGACCGGTTTTCCCGGTAATCCGTATTTGCT (site CGTGTGGCTAG),0.00552
3,CGTCTGGCATGGACCGGTTTTCCCGGTAATCCGTATTTGCT (site CGTTTGGCTAG),0
4,CGTCTTCCATGGACCGGTTTTCCCGGTAATCCGTATTTGTC (site CGTCTTCCTGA),1.19
5,CGTGAGACATGGACCGGTTTTCCCGGTAATCCGTATTTGAG (site CGTAAGACTCT),2.08
6,CGTGAGACATGGACCGGTTTTCCCGGTAATCCGTATTTGAG (site CGTCAGACTCT),0.00623
7,CGTGAGACATGGACCGGTTTTCCCGGTAATCCGTATTTGAG (site CGTGAGACTCT),2.08
8,CGTGAGACATGGACCGGTTTTCCCGGTAATCCGTATTTGAG (site CGTTAGACTCT),0.167
9,CGTGCCTCATGGACCGGTTTTCCCGGTAATCCGTATTTGTC (site CGTGCCTCTGA),2.03
10,CGTGGAACATGGACCGGTTTTCCCGGTAATCCGTATTTGTC (site CGTGGAACTAA),0
11,CGTGGAACATGGACCGGTTTTCCCGGTAATCCGTATTTGTC (site CGTGGAACTCA),0.0117
12,CGTGGAACATGGACCGGTTTTCCCGGTAATCCGTATTTGTC (site CGTGGAACTGA),1.94
13,CGTGGAACATGGACCGGTTTTCCCGGTAATCCGTATTTGTC (site CGTGGAACTTA),0.519
14,CGTGGACCATGGACCGGTTTTCCCGGTAATCCGTATTTGTT (site CGTGGAACTAA),0.00973
15,CGTGGACCATGGACCGGTTTTCCCGGTAATCCGTATTTGTT (site CGTGGACCTAA),0.0211
16,CGTGGACCATGGACCGGTTTTCCCGGTAATCCGTATTTGTT (site CGTGGAGCTAA),0.0186
17,CGTGGACCATGGACCGGTTTTCCCGGTAATCCGTATTTGTT (site CGTGGATCTAA),0.722
18,CGTGTATCATGGACCGGTTTTCCCGGTAATCCGTATTTGAC (site CGTGTATCTGT),1.26
19,CGTGTATCATGGACCGGTTTTCCCGGTAATCCGTATTTGAC (site CTAGTATCTGT),0
20,CGTTAAGCATGGACCGGTTTTCCCGGTAATCCGTATTTGAA (site CGTTAAGCTTT),2
21,CGTTACACATGGACCGGTTTTCCCGGTAATCCGTATTTGAG (site CGTTAAACTCT),0.00268
22,CGTTACACATGGACCGGTTTTCCCGGTAATCCGTATTTGAG (site CGTTACACTCT),1.43

# — the supplement of paper PMC11208160
